Laboratory results as given in publication PMC12668310, “High‐Throughput Synthesis and Screening of a Cyanimide Library Identifies Selective Inhibitors of ISG15‐Specific Protease mUSP18” (Angewandte Chemie (International Ed. in English), 2025).
pIC50: −log10 of the molar value. Where “and” joins values, the source holds several entries; their conditions need not be identical. Equal entries are not always repeated. Where two headings read alike, the source gives them in different places.

What was measured:
mUSP18 [1] = molecular target: T1, mUSP18 (Mus musculus, UniProt Q9WTV6); assay: High-throughput screening, ISG15ct-RhoMP, single dose 1.25 µM; assay type: biochemical, murine; details: mUSP18 %inhibition
T1 construct: (46-368); His-tag (N); made in house
T1 sequence (Q9WTV6 46-368): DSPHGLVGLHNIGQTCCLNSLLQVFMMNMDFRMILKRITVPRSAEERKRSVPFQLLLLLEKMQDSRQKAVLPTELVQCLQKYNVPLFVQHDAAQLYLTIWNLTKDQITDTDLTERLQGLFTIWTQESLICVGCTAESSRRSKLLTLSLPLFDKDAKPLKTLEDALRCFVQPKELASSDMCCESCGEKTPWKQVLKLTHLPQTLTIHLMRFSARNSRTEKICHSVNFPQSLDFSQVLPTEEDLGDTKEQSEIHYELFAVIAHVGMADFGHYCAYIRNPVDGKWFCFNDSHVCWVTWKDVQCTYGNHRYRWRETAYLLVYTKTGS

UCHL1 = molecular target: T2, UCHL1 (Homo sapiens, UniProt P09936); assay: IC50 determination, fluorogenic Ub-Rho-morpholine activity assay; assay type: biochemical; details: ratio of IC50 values
T2 construct: (1-223); made in house
T2 sequence (P09936 1-223): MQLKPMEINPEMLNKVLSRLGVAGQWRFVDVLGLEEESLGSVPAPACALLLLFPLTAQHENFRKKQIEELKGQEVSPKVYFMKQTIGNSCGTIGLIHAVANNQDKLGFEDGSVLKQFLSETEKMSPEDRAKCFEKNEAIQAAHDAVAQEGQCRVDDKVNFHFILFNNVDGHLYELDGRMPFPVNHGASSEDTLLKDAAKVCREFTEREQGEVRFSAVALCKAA

UCHL3 = molecular target: T3, UCHL3 (Homo sapiens, UniProt P15374); assay: as above; assay type: biochemical; details: after 30 min incubation; purified compound
T3 construct: (1-230); made in house
T3 sequence (P15374 1-230): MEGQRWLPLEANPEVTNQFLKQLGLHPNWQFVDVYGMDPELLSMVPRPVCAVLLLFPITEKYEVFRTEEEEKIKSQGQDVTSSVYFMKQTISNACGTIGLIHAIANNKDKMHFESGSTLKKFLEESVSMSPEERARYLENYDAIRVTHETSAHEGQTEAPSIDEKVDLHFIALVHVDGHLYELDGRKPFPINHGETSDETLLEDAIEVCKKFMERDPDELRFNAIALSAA

USP32 = molecular target: T4, USP32 (Homo sapiens, UniProt Q8NFA0); assay: as above; assay type: biochemical; details: after 30 min incubation; purified compound
T4 construct: (1-1604); His-tag (N); made in house

mUSP18 [2] = molecular target: T1, mUSP18; assay: IC50 determination, fluorogenic ISG15CT-Rho-morpholine activity assay; assay type: biochemical, murine; details: after 30 min incubation; purified compound; ISG15CT-Rho-morpholine substrate
[3] = carboxylic acid (CA) building block alone, read-out: %inh CA only
[4] = carboxylic acid (CA) with coupling reagents DIC/HOBT, read-out: %inh CA + DIC/HOBT

T4 sequence (Q8NFA0 whole entry): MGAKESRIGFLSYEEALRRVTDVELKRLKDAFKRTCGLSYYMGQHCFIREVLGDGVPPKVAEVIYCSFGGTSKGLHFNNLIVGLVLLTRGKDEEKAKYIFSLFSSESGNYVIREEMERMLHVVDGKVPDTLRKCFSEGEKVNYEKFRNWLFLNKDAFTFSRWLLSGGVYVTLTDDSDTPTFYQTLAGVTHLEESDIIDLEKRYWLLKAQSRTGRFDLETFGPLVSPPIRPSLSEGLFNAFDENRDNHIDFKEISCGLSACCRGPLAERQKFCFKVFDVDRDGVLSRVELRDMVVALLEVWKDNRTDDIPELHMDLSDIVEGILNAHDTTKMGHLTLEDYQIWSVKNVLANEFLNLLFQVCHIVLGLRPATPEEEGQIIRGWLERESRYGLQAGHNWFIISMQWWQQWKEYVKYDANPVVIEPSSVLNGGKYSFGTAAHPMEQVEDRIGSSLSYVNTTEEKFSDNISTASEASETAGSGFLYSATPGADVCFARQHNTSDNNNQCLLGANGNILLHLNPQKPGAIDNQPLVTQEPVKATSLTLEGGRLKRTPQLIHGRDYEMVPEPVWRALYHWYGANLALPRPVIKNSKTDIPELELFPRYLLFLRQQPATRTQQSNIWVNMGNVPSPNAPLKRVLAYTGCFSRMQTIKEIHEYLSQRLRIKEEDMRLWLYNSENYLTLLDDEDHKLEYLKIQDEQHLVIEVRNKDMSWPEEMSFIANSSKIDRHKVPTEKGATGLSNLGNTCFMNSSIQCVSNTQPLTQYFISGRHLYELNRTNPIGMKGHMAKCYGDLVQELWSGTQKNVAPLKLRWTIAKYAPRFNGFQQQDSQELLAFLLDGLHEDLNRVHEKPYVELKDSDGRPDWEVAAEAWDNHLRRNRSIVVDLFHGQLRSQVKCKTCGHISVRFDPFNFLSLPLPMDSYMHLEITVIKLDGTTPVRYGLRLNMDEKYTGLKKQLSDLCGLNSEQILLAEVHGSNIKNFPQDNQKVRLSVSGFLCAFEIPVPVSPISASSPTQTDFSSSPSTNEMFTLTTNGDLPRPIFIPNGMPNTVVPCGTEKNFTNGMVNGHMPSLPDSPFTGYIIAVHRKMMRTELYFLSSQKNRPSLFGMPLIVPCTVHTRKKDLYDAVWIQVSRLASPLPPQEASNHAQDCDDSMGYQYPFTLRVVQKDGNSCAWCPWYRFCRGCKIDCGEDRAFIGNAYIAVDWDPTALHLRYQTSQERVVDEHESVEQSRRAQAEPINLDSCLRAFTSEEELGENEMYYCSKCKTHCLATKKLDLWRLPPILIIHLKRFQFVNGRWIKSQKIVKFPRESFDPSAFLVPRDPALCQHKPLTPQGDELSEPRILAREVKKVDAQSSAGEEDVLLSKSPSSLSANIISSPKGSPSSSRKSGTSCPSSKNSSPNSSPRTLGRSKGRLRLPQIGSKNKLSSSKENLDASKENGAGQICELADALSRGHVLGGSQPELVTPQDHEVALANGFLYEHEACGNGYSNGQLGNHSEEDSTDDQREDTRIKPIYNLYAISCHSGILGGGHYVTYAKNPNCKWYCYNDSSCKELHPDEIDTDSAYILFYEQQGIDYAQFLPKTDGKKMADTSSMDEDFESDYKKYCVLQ

Row | SMILES | inhibition at 1.25 µM (mUSP18 [1]; [3]) [%] | inhibition at 1.25 µM (mUSP18 [1]; [4]) [%] | other results
1 | O=C(O)c1cccc(S(=O)(=O)N2CCOCC2)c1 [CA422] | -10.9 | -0.86 | –
2 | O=C(O)Cc1coc(-c2cccs2)n1 [CA423] | 8.99 | -4.85 | –
3 | COc1ccc(S(=O)(=O)N(CCC(=O)O)Cc2ccccc2)cc1 [CA424] | 3.84 | -12.6 | –
4 | Cc1oc(-c2ccsc2)nc1CC(=O)O [CA425] | 2.13 | -7.19 | –
5 | Cc1ccc(C=CS(=O)(=O)N2CCC(C(=O)O)CC2)cc1 [CA426] | -0.61 | -6.87 | –
6 | O=C(O)c1cccnc1Oc1ccc(Cl)cc1Cl [CA427] | -5.52 | -6.68 | –
7 | O=C(O)Cc1csc(-c2ccccc2)n1 [CA428] | -0.27 | -5.62 | –
8 | Cc1ccccc1-n1cc(C(=O)O)cn1 [CA429] | -5.24 | 4.15 | –
9 | O=C(O)c1cccnc1-n1cccn1 [CA430] | -3.79 | 17 | –
10 | CCn1nc(C(C)C)cc1C(=O)N1CCCCC1C(=O)O (stereo not drawn) [CA431] | -2.4 | -10.1 | –
11 | Cn1nc(C2CCC2)cc1C(=O)O [CA432] | -1.28 | -6.37 | –
12 | O=C(O)c1cccc(Oc2nccs2)c1 [CA433] | -0.99 | -7.69 | –
13 | CNS(=O)(=O)c1ccc(-c2ccccc2OC(F)(F)F)c(C(=O)O)c1 [CA434] | -0.67 | -3.53 | –
14 | O=C(O)Cc1ccc(OCc2ccccn2)cc1 [CA435] | -5.3 | -2.79 | –
15 | O=C(O)c1cc(S(=O)(=O)Nc2cccc(F)c2)ccc1F [CA436] | -3.43 | -0.67 | –
16 | O=C(O)c1ncn(-c2ccccc2)n1 [CA437] | -3.12 | 0.58 | –
17 | O=C(O)C1CCCN(c2ccc(Cl)nn2)C1 (stereo not drawn) [CA438] | -7.25 | -2.38 | –
18 | O=C(O)c1cn[nH]c1C1CC1 [CA439] | -3.97 | 20.1 | –
19 | O=C(O)C1CCCN(c2ncccc2C(F)(F)F)C1 (stereo not drawn) [CA440] | -5.84 | -2.29 | –
20 | O=C(O)c1nn(-c2ccccc2)c(=O)[nH]c1=O [CA441] | -3.61 | -0.87 | –
21 | Cn1cc(-c2nc(C(=O)O)cs2)cn1 [CA442] | -4.05 | -2.36 | –
22 | O=C(O)c1ncsc1Cc1ccccc1 [CA443] | 7.6 | 12 | –
23 | O=C(O)C1CCN(C(=O)N2CCOCC2)CC1 [CA444] | -6.76 | -0.57 | –
24 | Cc1n[nH]c(C)c1Cc1ccc(C(=O)O)o1 [CA445] | -7.28 | 2.15 | –
25 | CC1=NN(c2cccc(Br)c2)C(=O)C1CC(=O)O (stereo not drawn) [CA446] | -10.1 | 26.8 | –

Row | SMILES | inhibition at 1.25 µM (mUSP18 [1]; [3]) [%] | inhibition at 1.25 µM (mUSP18 [1]; [4]) [%] | other results
26 | CCn1ccc(-c2cc(C(=O)O)no2)n1 [CA447] | 9.91 | -2.33 | –
27 | O=C(O)c1ccc(Cn2ccccc2=O)o1 [CA448] | 5.37 | -5.91 | –
28 | CC(C)n1nccc1[1C@@H]1OCC[1C@H]1C(=O)O [CA449] | 2.37 | -9.4 | –
29 | O=C(O)c1cnc(-c2cccnc2)s1 [CA450] | 0.56 | -9.05 | –
30 | O=C(O)c1ccc(=O)n(C2CC2)c1 [CA451] | -1.56 | -6.2 | –
31 | O=C(O)C1CC(=O)N(OCc2ccccc2)C1 (stereo not drawn) [CA452] | -2.07 | -8.76 | –
32 | O=C(O)CC1CCN(c2ccc(Cl)nn2)CC1 [CA453] | -0.89 | -4.65 | –
33 | O=C(O)c1cnn(CC2CCC2)c1 [CA454] | -1.23 | -8.94 | –
34 | O=C(O)Cc1csc(C2CC2)n1 [CA455] | 0.84 | -7.57 | –
35 | O=C(O)c1cc(C2CCC2)on1 [CA456] | 1.15 | -2.8 | –
36 | O=C(O)C(c1ccccc1)n1cccc1 (stereo not drawn) [CA457] | 0.68 | -4.48 | –
37 | O=C(O)c1nc(N2CCOCC2)ncc1Cl [CA458] | 2.77 | -1.69 | –
38 | O=C(O)C1CCCCN1S(=O)(=O)c1ccc(Br)s1 (stereo not drawn) [CA459] | -0.93 | -2.17 | –
39 | CC(C)c1cc(C(=O)O)n(-c2ccccc2)n1 [CA460] | -1.54 | -0.28 | –
40 | O=C(O)c1ccc(-c2ncon2)cc1 [CA461] | -2.23 | -2.33 | –
41 | O=C(O)C(CCc1ccccc1)c1ccccc1 (stereo not drawn) [CA462] | -0.33 | -1.15 | –
42 | O=C(O)c1cccc(-c2ncon2)c1 [CA463] | -1.44 | -3.17 | –
43 | COC1CC(C(=O)O)N(C(=O)OCc2ccccc2)C1 (stereo not drawn) [CA464] | -0.15 | -1.5 | –
44 | Cc1cccc(COc2cccc(C(=O)O)c2)c1 [CA465] | 2.43 | 2.72 | –
45 | Cn1cc(-c2cc(C(=O)O)no2)cn1 [CA466] | -0.57 | -1.79 | –
46 | O=C(O)Cc1ccc(NS(=O)(=O)c2cccc(C(F)(F)F)c2)cc1 [CA467] | -0.52 | 2.94 | –
47 | CC1CCCCN1S(=O)(=O)c1ccccc1C(=O)O (stereo not drawn) [CA468] | -4.17 | 7 | –
48 | O=C(O)c1ccc(S(=O)(=O)N2CCCCCC2)cc1 [CA469] | -5.44 | 4.89 | –
49 | N#CN1CC[C@H](C(=O)Nc2ncc(N3CCOCC3)s2)C1 [Compound 5] | – | – | less potency toward USP18 and USP30 compared with UCHL1 (UCHL1): 20–40 fold; pIC50 (UCHL3): < 3.70; pIC50 (USP32): 3.62; pIC50 (mUSP18 [2]): 5.29
50 | CCN1C(=O)C=CC1=O [NEM] | – | – | %inh CA only (mUSP18 [1]; carboxylic acid (CA) building block alone): 100.10% and 99.62%; %inh CA + DIC/HOBT (mUSP18 [1]; carboxylic acid (CA) with coupling reagents DIC/HOBT): 99.98% and 100.30%
